{
  "source": "patent US8865672B2",
  "about": "“Prevention of tissue ischemia and related methods” (The United States of America, as represented by the …, priority 2006, dated 2014)",
  "key": {"[1]": {"test_system": "full thickness skin grafts in mice", "assay": "Full thickness skin graft (FTSG) model", "assay_type": "in vivo, mouse", "settings": "for FTSG survival: wild type FTSG and wound beds infiltrated at grafting", "experimental": "Wild type, TSP1 null, CD47 null and CD36 null mice were matched for sex and age. Anesthesia was induced by and maintained with inhalation isoflurane. Body temperature was maintained at 37° C. with a heating pad during the procedure. The dorsal surface was clipped of hair and depilated with Nair®. The skin was then cleansed with surgical soap and alcohol and the animals draped. Using sterile technique, a 1×1 cm FTSG incorporating the panniculus carnosus, subcutaneous tissues and skin were raised. Graft dimensions were marked on the animal skin surface with the aid of a template to insure consistency in dimension. Grafts were in the midline of the animal and secured with four interrupted 5-0 nylon sutures. Sutures were so placed as to include the fascia of the dorsal musculature to provide increased immobilization of grafts to the underlying wound bed Animals were awakened and returned to individual cages and allowed ad libitum access to food and water. Trauma to FTSG was not encountered during the post-operative interval since grafts were located in the dorsal midline over the mid thoracic area and each animal was housed individually following surgery. On postoperative day three or seven, the animals were again anesthetized with inhalation isoflurane and skin graft survival evaluated.\nThe groups of animals utilized and the treatments received as indicated either at the time of skin grafting and/or during the post-operative interval are summarized in FIG. 21. Animals treated with ISDN (1 mg/ml) or L-NAME (0.5 mg/ml) had ad libitum access to drinking water containing the given concentrations of agents during the post-operative interval. Animals treated with a CD47 monoclonal antibody (Ab clone 301) or an isotype matched control antibody (Ig2α) underwent injection of 40 μg delivered as 10 μl of a 4 mg/ml stock in 100 μl of PBS with equal volumes injected between the wound bed and graft prior to suturing the graft in place. Animals treated with a CD47 morpholino oligonucleotide underwent injection of the FTSG and wound bed with 10 μmol/L in 250 μl of PBS with 125 μl volumes injected in the graft and wound bed, respectively prior to suturing the graft in place.\nThe necrotic areas of the FTSG were determined by color, refill, eschar, and the pin-prick test. The outlines of viable and nonviable areas were traced using transparent film, and the area of necrosis cut from the template and the area of skin graft necrosis versus total skin graft area determined by comparison of the original template weight to the weight of the cut template utilizing the method described by Ueda (Ueda et al., J Surg Res 80(2):200-204, 1998). Skin graft survival area was presented as the ration of graft survival on post-operative day three or seven divided by the original graft area multiplied by 100%. Additionally, digital images were then acquired using an Olympus C5500 digital camera at a fixed distance (20 cm perpendicular to the animal) under standard room lighting with autoflash and macro settings engaged and uploaded for image analysis of tissue survival with a standard software program (Image-Pro Plus, Media Cybernetics, Inc., Silver Spring, Md.). […]\nSkin graft wound beds were assessed at indicated time points (72 hours or 7 days post-operatively) for visible alterations in vascularity under 5× magnification. […] Visible vessels without ramifications and branches were counted once. […]"}, "[2]": {"test_system": "white hairless Yucatan miniature pig VSMC", "assay": "Intracellular cGMP in porcine VSMC", "assay_type": "cell-based", "experimental": "White hairless Yucatan miniature pig VSMC were plated onto culture plates (Nunc, Roskilde, Denmark) at a the indicated cell density in smooth muscle cell growth medium+2% FCS and cultured until approximately 90% confluent. Cultured cells were treated according to the recommendation of the manufacturer with morpholinos (10 μM) and delivery agent (Endoporter® 6 μl/ml) and used within 48 hours of treatment.\nWhite hairless Yucatan miniature pig VSMC (10^4 cells/well) grown overnight in 12-well culture in SM-GM containing 2% FCS and then weaned off serum over 48 h before treatment with NO donors and other agents in serum/additive free medium+0.1% BSA. Intracellular cGMP levels were determined using an enzyme immunoassay (Amersham, GE Health Care, UK)."}, "[3]": {"test_system": "random dorsal cutaneous flaps in white hairless Yucatan miniature pigs", "assay": "Porcine random cutaneous flap model", "assay_type": "in vivo, pig", "settings": "for flap necrosis: 2×10 cm flaps, injection at surgery", "experimental": "Animals underwent shaving of the dorsal surface hair and cleansing of the skin with soap and alcohol. Random dorsal cutaneous flaps 2×10×0.5 cm were elevated and immediately sutured in place with interrupted 4-0 nylon suture (Ethicon, Johnson & Johnson, N.J.). Treated flaps were injected with the indicated amounts of drug in sterile normal saline. On the 3 and 7 post-operative days tissue survival was determined and flaps excised for histology. In some instances animals received intravenous fluorescein prior to euthanasia and flap perfusion assessed under ultra violet illumination.\nClinical assessment of flap perfusion was performed with notation of color, capillary refill and bleeding to needle stick being recorded. Flap dimensions were then traced onto a clear plastic sheet and with demarcation of viable and non-viable areas made.\nThe internal jugular vein and common carotid arteries were cannulated and the animals perfused with a volume of 5 L heparinized (50 U/mL) normal saline heated to 50° C. A mixture of India ink and gelatin (5%) heated to 50° C. (1 L) was administered by gently pressing and then releasing the plunger of the syringe to simulate the arterial pulse. The flaps were excised and placed in 100% glycerin and stored at 4° C. for 10 days. During this time flap tissue became thin, desiccated and transparent and allowed visualization of the vascular architecture under direct transillumination."}, "human platelets": {"test_system": "human platelets", "assay": "cGMP in human platelets", "assay_type": "cell-based", "experimental": "Fresh human platelets at 2×10^5 platelets/μl in Tyrode's buffer or PRP were pre-incubated with the indicated agents for 15 minutes and then challenged with DEA/NO for the indicated time interval at room temperature and total cGMP determined via immunoassay (Amersham, GE Healthcare, Buckinghamshire, UK). Murine WT and TSP1-null platelets were treated with DEA/NO and cGMP flux measured."}},
  "data": [
    {"substance": "CGTCACAGGCAGGACCCACTGCCCA (all phosphorodiamidate morpholino (PMO)) [CD47 morpholino]", "values": [
      {"measurement": "H & E histology of treated wild type FTSG", "setting": "[1]; mouse, in vivo", "result": "essentially normal tissue architecture without evidence of necrosis"},
      {"measurement": "FTSG survival", "setting": "[1]", "result": "79±5", "unit": "%"},
      {"measurement": "wound bed vascular index", "setting": "[1]; wild type wound beds", "result": "substantial increases in visible vasculature"},
      {"measurement": "ability of TSP1 to suppress NO-stimulated cGMP after pretreatment", "setting": "[2]; porcine VSMC, TSP1 2.2 nM", "result": "resistant to suppression by TSP1"},
      {"measurement": "basal cGMP levels", "setting": "[2]; resting porcine VSMC", "result": "elevated"},
      {"measurement": "flap necrosis", "setting": "[3]", "result": "12±3", "unit": "%"},
      {"measurement": "flap tissue survival", "setting": "[3]; compared to untreated flaps", "result": "significantly more tissue survival"}
    ]},
    {"substance": "TSP1: thrombospondin-1 prepared from human platelets", "values": [
      {"measurement": "NO-stimulated increase in cGMP", "setting": "[2]; control and mismatch treated porcine VSMC, TSP1 2.2 nM", "result": "blocked the increase in cGMP"},
      {"measurement": "NO-stimulated cGMP flux in platelets", "setting": "human platelets; PRP, TSP1 2.2 nM", "result": "continued to block"},
      {"measurement": "NO stimulated cGMP in platelets", "setting": "human platelets; washed human platelets in Tyrode's buffer", "result": "decreased"}
    ]},
    {"substance": "CGTgACAGcCAcGACCgACTGCgCA (antisense CGTGACAGCCACGACCGACTGCGCA; all phosphorodiamidate morpholino (PMO)) [control morpholino, reference compound]", "values": [
      {"measurement": "FTSG survival", "setting": "[1]", "result": "significant graft necrosis and loss"},
      {"measurement": "flap necrosis", "setting": "[3]", "result": "34±6", "unit": "%"},
      {"measurement": "India ink staining of flap vessels", "setting": "[3]; post-operative day 3", "result": "lack of India ink staining of vessels"}
    ]}
  ]
}
